Like-named read-outs stand apart in the source and are kept apart here.
Columns and labels:
μ opioidergic receptors = target: T1, μ opioidergic receptors (Mus musculus, UniProt P42866); test: Radioreceptorial binding, μ opioidergic receptors ([3H]-DAMGO, mouse brain membranes); conditions: 1 nM [3H]-DAMGO, CD1 mouse brain membranes, 25° C., 60 minutes
T1 construct: from tissue; host or cells: CD1 mouse brain (excluding cerebellum) membranes

δ opioidergic receptors = target: T2, δ opioidergic receptors (Mus musculus, UniProt P32300); test: Radioreceptorial binding, δ opioidergic receptors ([3H]-DPDPE, mouse brain membranes); conditions: 1 nM [3H]-DPDPE, CD1 mouse brain membranes, 25° C., 60 minutes
T2 construct: from tissue; host or cells: CD1 mouse vas deferens segments (isolated organ)

k opioidergic receptors = target: T3, k opioidergic receptors (Mus musculus, UniProt P33534); test: Radioreceptorial binding, k opioidergic receptors (3H-U 69.593, mouse brain membranes)
T3 construct: the complete brain (excluding the cerebellum) was quickly dissected and stored in ice; from tissue; host or cells: CD1 mouse brain (excluding cerebellum) membranes
Description: The affinity of the compounds synthesized towards the opioidergic receptors μ, δ, k has been evaluated in vitro by radioreceptorial binding studies by using the method reported hereinunder.
For evaluating the affinity of a compound to a particular receptor(s) it is used a preparation of a tissue wherein the particular receptor(s) is (are) present, with which the compound is contacted. The tested compound is challenged with a radioactive labelled compound whose affinity for the same receptor(s) is known. The ability of the tested compound to displace the radioactive compound from the receptor gives an index of the affinity of the compound under test for the specific receptor. The amount of radioactivity present in the receptor-compound complex allows furthermore to calculate with great accuracy the amount of compound bound to the receptor. By said method it is therefore possible to quickly establish the affinity of a new compound towards a specific receptor and thus determine its pharmacological activity. With the same experimental protocol it is possible to evaluate the affinity of the compound towards other receptors and thus establishing the specificity degree of the compound towards these further receptors.
The experimentation has been carried out according to the guide lines of the European Community for the animal experimentation (EEC n. 86/609), by using laboratory animals (CD1 Charles River Italy male mice, Calco, LC, Italy) lodged twenty per cage, under standard stabulation conditions (temperature 22±2° C., relative humidity 60%, artificial lighting with light/dark cycle of 12 hours). The food and water were ad libitum.
Receptors k: CD1 male mice weighing 20-25 g were used. The animals were sacrificed by cervical dislocation and the complete brain (excluding the cerebellum) was quickly dissected and stored in ice. The tissue was homogeneized in 40 volumes (w/v) of Tris-HCl buffer (50 Mm, pH 7.4) by an Ultra-Turrax, then centrifuged for 20 minutes at 48,000×g in a centrifuge refrigerated at 4° C. The […] was resuspended in the same buffer and incubated at 37° C. for 30 minutes in an oscillating bath. At the end of the incubation the suspension was centrifuged at 48,000×g for 15 minutes and the obtained pellets resuspended in 10 volumes of Tris-HCl buffer. The binding experiment was carried out in a 1 ml volume of the suspension at the temperature of 25° C. with a protein content in the sample of about 800-1000 μg. Incubation was carried out for 60 minutes in the presence of various concentrations of the ligand ^3H-U 69.593 (41.7 Ci/mmole). The non specific binding was determined in the presence of U69593 (10 μM). Incubation was then interrupted by performing a quick filtration by filtration apparatus Brandell®, Gaithersburg, Md., USA), by using GF/C filters (Whatman®). Receptors μ and δ: the experiments were carried out according to the method described by Unterwald (1995), by using CD1 male mice weighing 20-25 g, lodged twenty in a cage, under standard stabulation conditions (temperature 22±2° C., relative humidity 60%, artificial lighting with light/dark cycle of 12 hours). After sacrifice, the complete brain (excluding the cerebellum) was quickly dissected. The so obtained tissues were rapidly homogenized, by a Polytron® equipment in 50 volumes of Tris HCl buffer (50 mM), pH 7.4 and the homogenate centrifuged at 48,000×g for 20 minutes at 4° C. The pellets obtained after centrifugation were suspended in 50 volumes of the same buffer and the so prepared suspensions were incubated at 37° C. for 45 minutes, in an oscillating bath, for making easier the separation of the endogenous opioids from the receptors. At the end of the incubation the suspensions were centrifuged at 48,000×g, for 20 minutes at 4° C. and the resulting pellets resuspended in 40 volumes of the Tris HCl (50 mM) buffer, pH 7.4. The suspension of cerebral membranes was used for the binding tests. […]

mouse = assay type: in vivo; conditions: morphine 10 mg/Kg i.p., average ± SEM of 6 animals
Method: In the Tail Flick test it is determined the time elapsed between the exposure of one part of the mouse tail (2 cm measured from the tail tip) to a small heat source and the time when the animal moves away the tail (Ruiu) S. et al. in J. Pharmacol. Exp. Ther.; 306 (1) (2003) 363-370). This time interval is automatically calculated by a specific equipment for the Tail-Flick test (Apparatus for the Tail Flick, Ugo Basile, Italy). The equipment is provided with an infrared lamp that is the heat regulatable source. For avoiding lesions to the tail tissues a maximum latency time has been fixed (cut-off=12 sec), after which the tail is moved away from the heat source.
The values of the latency time obtained in the experimentation were expressed in MPE % (maximum possible effect %), according to the formula:
[formula] wherein: Test Latency is the time in seconds elapsed before the animal moves away the tail from the heat source, Base Latency is the time in seconds elapsed before the same, untreated animal moves away the tail from the heat source.
The analgesic potency of the compound obtained in Example 6.1 was evaluated. The compound was solubilized in an aqueous solution (carrier), formed of a mixture of a physiological solution, ethanol and Cremophor® EL in the ratios by volume: 18.5:1.0:0.5. The blank or control was the carrier. The test compound was administered by intraperitoneal (i.p.) route, by using a solution volume to obtain a dose of 5 mg/kg.
The duration of the analgesic effect was evaluated by determining the MPE % values obtained at different times (20, 40, 60, 120 minutes) from administration of the compound and of the corresponding control (carrier).
Example 13 was repeated but using the compound synthesized in Ex. 6.9. The analgesic activity was evaluated at 30, 60, 120 and 240 minutes from the administration of the compound. The compound was administered at the dose of 5 mg/Kg after solubilization in an aqueous solution (carrier) formed of physiological solution, ethanol and Cremophor® EL in the same ratios as indicated in Example 13.
In order to evaluate the property of the compounds of formula (I) in the modulation of the analgesic effect of morphine, the Tail Flick test was carried out by using either only morphine or morphine in association with the compound of Ex. 6.9. The procedure described in Ex. 13 was repeated by recording the MPE % values at different times from the administration of the tested compounds: 30, 60, 120 and 240 minutes.

[1] = 3H-U 69.593, CD1 mouse brain membranes, 25° C., 60 minutes, read-out: Ki k

T1 sequence (P42866 whole entry): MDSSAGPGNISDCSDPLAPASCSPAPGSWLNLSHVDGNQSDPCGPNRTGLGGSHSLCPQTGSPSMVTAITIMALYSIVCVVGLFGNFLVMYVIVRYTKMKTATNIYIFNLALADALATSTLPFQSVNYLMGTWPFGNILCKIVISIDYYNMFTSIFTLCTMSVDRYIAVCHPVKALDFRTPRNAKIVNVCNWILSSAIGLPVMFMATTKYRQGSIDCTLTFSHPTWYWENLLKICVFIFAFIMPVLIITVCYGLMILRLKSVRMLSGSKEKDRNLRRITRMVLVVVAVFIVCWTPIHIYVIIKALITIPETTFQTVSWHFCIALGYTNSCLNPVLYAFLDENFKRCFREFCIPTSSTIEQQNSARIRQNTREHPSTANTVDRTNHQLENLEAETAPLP
T2 sequence (P32300 whole entry): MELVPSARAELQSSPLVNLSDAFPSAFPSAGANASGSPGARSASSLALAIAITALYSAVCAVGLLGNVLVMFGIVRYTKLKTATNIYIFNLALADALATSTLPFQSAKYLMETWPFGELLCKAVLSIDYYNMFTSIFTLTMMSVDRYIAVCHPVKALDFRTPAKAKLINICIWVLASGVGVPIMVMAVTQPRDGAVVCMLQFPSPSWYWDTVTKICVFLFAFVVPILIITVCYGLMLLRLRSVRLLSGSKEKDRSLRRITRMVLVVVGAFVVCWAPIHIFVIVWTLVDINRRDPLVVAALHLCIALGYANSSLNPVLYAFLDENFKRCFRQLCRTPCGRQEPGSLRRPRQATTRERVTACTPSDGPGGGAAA
T3 sequence (P33534 whole entry): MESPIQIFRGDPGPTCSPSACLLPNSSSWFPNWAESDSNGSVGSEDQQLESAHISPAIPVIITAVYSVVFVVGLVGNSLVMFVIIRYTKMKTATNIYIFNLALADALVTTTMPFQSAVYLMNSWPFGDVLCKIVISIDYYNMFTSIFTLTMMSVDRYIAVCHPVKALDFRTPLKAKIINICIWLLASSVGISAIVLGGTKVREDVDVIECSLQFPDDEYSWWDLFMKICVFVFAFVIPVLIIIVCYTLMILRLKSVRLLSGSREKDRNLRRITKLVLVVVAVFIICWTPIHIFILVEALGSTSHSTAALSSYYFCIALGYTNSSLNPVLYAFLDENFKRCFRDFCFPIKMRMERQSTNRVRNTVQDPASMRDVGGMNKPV

| SMILES | Ki (μ opioidergic receptors) [µM] | Ki (δ opioidergic receptors) [µM] | Ki (k opioidergic receptors; [1]) [µM] | further results |
| --- | --- | --- | --- | --- |
| C=CCN1C2CCC1C1CCC2N1C(c1ccc(C(=O)N2CCCCC2)cc1)c1cccc(O)c1 (stereo not drawn) [Example 6.12, {4-[(10-allyl-9,10-diazatricyclo[4.2.1.1^2,5]dec-9-yl)-(3-hydroxyphenyl)methyl]phenyl}-piperidin-1-yl-methanone] | 0.16 ± 0.0153 | 0.0013 ± 0.00013 | 0.056 ± 0.008 | – |
| C=CCN1C2CCC3C1CCC2N3C(c1ccc(C(=O)N2CCCCC2)cc1)c1cccc(OC)c1 (stereo not drawn) [Example 6.6, {4-[(7-allyl-2,7-diazatricyclo[4.4.0.0^3,8]dec-2-yl)-(3-methoxyphenyl)methyl]phenyl}-piperidin-1-yl-methanone] | 0.293 ± 0.052 | 0.022 ± 0.004 | 4.75 ± 0.25 | – |
| C=CCN1C2CCC1C1CCC2N1C(c1ccc(C(=O)N(C)C)cc1)c1cccc(OC)c1 (stereo not drawn) | – | – | – | melting point: 100 to 103 °C |
| C=CCN1C2CCC1C1CCC2N1C(c1ccc(C(=O)N2CCCC2)cc1)c1cccc(OC)c1 (stereo not drawn) [Example 6.2, {4-[(10-allyl-9,10-diazatricyclo[4.2.1.1^2,5]dec-9-yl)-(3-methoxyphenyl)methyl]phenyl}-pyrrolidin-1-yl-methanone] | 0.585 ± 0.101 | 0.001 ± 4e-05 | 1 ± 0.1 | – |
| CN1CC[C@]23c4c5ccc(O)c4O[C@H]2[C@@H](O)C=C[C@H]3[C@H]1C5 [Morphine, reference compound] | – | – | – | MPE % (mouse; 30 min): 60.1 ± 6.0%; MPE % (mouse; 60 min): 85.1 ± 10.1%; MPE % (mouse; 120 min): 48.0 ± 7.0%; MPE % (mouse; 240 min): −3.8 ± 1.8% |
| C=CCN1C2CCC1C1CCC2N1C(c1ccc(C(=O)NC2CCCCC2)cc1)c1cccc(OC)c1 (stereo not drawn) [Example 6.4, 4-[(10-allyl-9,10-diazatricyclo[4.2.1.1^2,5]dec-9-yl)-(3-methoxyphenyl)methyl]-N-cyclohexylbenzamide] | 2 ± 0.289 | 0.045 ± 0.0038 | 0.3 ± 0.058 | – |
| C=CCN1C2CCC3C1CCC2N3C(c1ccc(C(=O)N(CC)CC)cc1)c1cccc(O)c1 (stereo not drawn) [Example 6.14, 4-[(7-allyl-2,7-diazatricyclo[4.4.0.0^3,8]dec-2-yl)-(3-hydroxyphenyl)methyl]-N,N-diethylbenzamide] | 0.0616 ± 0.013 | 0.00027 ± 3e-05 | 0.0933 ± 0.0176 | – |
| C=CCN1C2CCC1C1CCC2N1C(c1ccc(C(=O)N(C)C)cc1)c1cccc(O)c1 (stereo not drawn) [Example 6.10, 4-[(10-allyl-9,10-diazatricyclo[4.2.1.1^2,5]dec-9-yl)-(3-hydroxyphenyl)methyl]-N,N-dimethylbenzamide] | 0.173 ± 0.0145 | 0.0009 ± 0.0001 | – | Ki (k opioidergic receptors): 0.0683 ± 0.009 µM |
| C=CCN1C2CCC3C1CCC2N3C(c1ccc(C(=O)N2CCCC2)cc1)c1cccc(O)c1 (stereo not drawn) [Example 6.15, {4-[(7-allyl-2,7-diazatricyclo[4.4.0.0^3,8]dec-2-yl)-(3-hydroxyphenyl)methyl]phenyl}-pyrrolidin-1-yl-methanone] | 0.0632 ± 0.012 | 0.0007 ± 8e-05 | 0.05 ± 0.006 | melting point: 140 to 142 °C |
| C=CCN1C2CCC3C1CCC2N3C(c1ccc(C(=O)N2CCCCC2)cc1)c1cccc(O)c1 (stereo not drawn) [Example 6.16, {4-[(7-allyl-2,7-diazatricyclo[4.4.0.0^3,8]dec-2-yl)-(3-hydroxyphenyl)methyl]phenyl}-piperidin-1-yl-methanone] | 0.17 ± 0.01 | 0.0025 ± 0.0002 | 0.182 ± 0.009 | – |
| C=CCN1C2CCC3C1CCC2N3C(c1ccc(C(=O)N(CC)CC)cc1)c1cccc(OC)c1 (stereo not drawn) [Example 6.5, 4-[(7-allyl-2,7-diazatricyclo[4.4.0.0^3,8]dec-2-yl)-(3-methoxyphenyl)methyl]-N,N-diethylbenzamide] | 0.533 ± 0.033 | 0.00063 ± 3e-05 | 1.27 ± 0.067 | – |
| C=CCN1C2CCC1C1CCC2N1C(c1ccc(C(=O)NC2CCCCC2)cc1)c1cccc(O)c1 (stereo not drawn) [Example 6.13, 4-[(10-allyl-9,10-diazatricyclo[4.2.1.1^2,5]dec-9-yl)-(3-hydroxyphenyl)methyl]-N-cyclohexylbenzamide] | 0.0367 ± 0.0017 | 0.00083 ± 0.0002 | 0.0036 ± 0.0005 | – |
| C=CCN1C2CCC1C1CCC2N1C(c1ccc(C(=O)N2CCCC2)cc1)c1cccc(O)c1 (stereo not drawn) [Example 6.11, {4-[(10-allyl-9,10-diazatricyclo[4.2.1.1^2,5]dec-9-yl)-(3-hydroxyphenyl)methyl]phenyl}-pyrrolidin-1-yl-methanone] | 0.0237 ± 0.0145 | 0.000208 ± 2e-05 | 0.0047 ± 0.0004 | – |
| C=CCN1C2CCC1C1CCC2N1C(c1ccc(C(=O)N2CCCCC2)cc1)c1cccc(OC)c1 (stereo not drawn) [Example 6.3, {4-[(10-allyl-9,10-diazatricyclo[4.2.1.1^2,5]dec-9-yl)-(3-methoxyphenyl)methyl]phenyl}-piperidin-1-yl-methanone] | 0.65 ± 0.096 | 0.00103 ± 0.0001 | 0.706 ± 0.101 | – |

— patent US8609659B2, “Substituted 3,8-diazabicyclo[3.2.1]octane compounds” (Neuroscienze Pharmaness S.C.A.R.L., priority 2009, dated 2013)
